Laboratory results taken from US9630977B2, “Cephalosporin derivatives and pharmaceutical compositions thereof” (Legochem Biosciences, Inc., priority 2011, dated 2017).
Values after ≈ are worked out from the molar mass of the structure shown. Like-named read-outs stand apart in the source and are kept apart here.

Columns and labels:
Format in all cases: cell-based
[1] = test system: K. pneumoniae (38 clinical isolates); assay: Antibacterial activity on representative drug-resistance bacteria: number of clinical isolates per MIC value; settings: K. pneumomiae (N = 38)
Procedure: (§1) The in vitro antibacterial activity was evaluated by measuring MIC90 (ug/mL) of each of the compounds of Examples 1 to 68, which is defined as the lowest concentration of an antibiotic that will inhibit the visible growth of 90% of microorganisms after incubation as compared with a control group to which the antibiotic is not treated. MIC90 values were measured by the broth microdilution method developed by the Clinical and Laboratory Standards Institute (CLSI) (see CLSI M7-A5, Methods for Dilution Antimicrobial Susceptibility Test for Bacteria that Grow Aerobically-Fifth Edition (2000): CLSI, Villanova, Pa.).
(§2) Test compounds each (the cephalosporin derivative compounds prepared in Examples 1 to 68) were dissolved in DMSO at the concentration of 10,240 ug/mL, were diluted by two fold with DMSO, and then were diluted by twenty fold with sterilized distilled water. The final concentration in the antibacterial activity test was in the range of […] to 128 ug/mL, and the final concentration of DMSO used as an adjuvant was 2.5% (V/V).

[2] = test system: A. baumannii (6 clinical isolates); assay: as above; settings: A. baumanni (N = 6)
Procedure: as §1, §2

[3] = test system: P. aeruginosa (16 clinical isolates); assay: as above; settings: P. aeruginosa (N = 16)
Procedure: as §1, §2

[4] = test system: 19 clinical isolates; assay: In vitro antibacterial activity test, panel of 19 clinical isolates as a whole; settings: effect of a siderophore group, Table 1
Procedure: To evaluate antibacterial activity of each of the compounds of Examples 1 to 68, in vitro antibacterial activity test was performed.
as §1
In vitro antibacterial activity was measured with respect to the following 19 clinical isolates: M. catarrhalis; P. aeruginosa (5 strains); K. pneumoniae (6 strains); A. baumannii (3 strains); E. coli (2 strains); A. calcoaceticus; and E. cloacae.
as §2

[5] = test system: P. aeruginosa 1912E; assay: In vitro antibacterial activity test (broth microdilution)
Procedure, shortened: (§3)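 Clinical isolates; CLSI broth microdilution; MIC90 in ug/mL; final compound range 0.0626–128 ug/mL; DMSO 2.5% (V/V) final.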

[6] = test system: P. aeruginosa 43; assay: as above; settings: P. aeruginosa 43
Procedure, shortened: as §3

[7] = test system: E. coli AG100; assay: as above
Procedure, shortened: as §3

[8] = test system: M. catarrhalis 2524; assay: as above; settings: M. catarrhalis 2524
Procedure, shortened: as §3

[9] = test system: E. coli β4; assay: as above
Procedure, shortened: as §3

[10] = test system: E. cloacae β19; assay: as above
Procedure, shortened: as §3

[11] = test system: K. pneumoniae 2011E; assay: as above; settings: K. pneumoniae 2011E
Procedure, shortened: as §3

[12] = test system: P. aeruginosa 40; assay: as above
Procedure, shortened: as §3

[13] = test system: P. aeruginosa 37; assay: as above
Procedure, shortened: as §3

[14] = test system: K. pneumoniae β9; assay: as above; settings: K. pneumoniae β9
Procedure, shortened: as §3

[15] = test system: K. pneumoniae β10; assay: as above; settings: K. pneumoniae β10
Procedure, shortened: as §3

[16] = test system: P. aeruginosa 6065Y; assay: as above
Procedure, shortened: as §3

[17] = test system: K. pneumoniae β11; assay: as above; settings: K. pneumoniae β11
Procedure, shortened: as §3

[18] = test system: A. baumannii 52; assay: as above; settings: A. baumannii 52
Procedure, shortened: as §3

[19] = test system: A. calcoaceticus ATCC15473; assay: as above; settings: A. calcoaceticus ATCC15473
Procedure, shortened: as §3

[20] = test system: K. pneumoniae β14; assay: as above
Procedure, shortened: as §3

[21] = test system: K. pneumoniae β13; assay: as above; settings: K. pneumoniae β13
Procedure, shortened: as §3

[22] = test system: A. baumannii 46; assay: as above; settings: A. baumannii 46
Procedure, shortened: as §3

[23] = test system: A. baumannii 49; assay: as above; settings: A. baumannii 49
Procedure, shortened: as §3

[24] = Pseudomonas aeruginosa, read-out: MIC90
[25] = Klebsiella pneumoniae, read-out: MIC90
[26] = Acinetobacter baumannii, read-out: MIC90

CC(C)(O/N=C(\C(=O)N[C@@H]1C(=O)N2C(C(=O)[O-])=C(/C=C/C[n+]3cnc(N)c(NCCNC(=O)c4cc(=O)c(O)cn4O)c3)CSC12)c1csc(N)n1)C(=O)O (stereo partly shown) [Compound 11]
number of clinical isolates that showed the respective MIC value ([1]; MIC 0.5 ug/mL): 1
number of clinical isolates that showed the respective MIC value ([1]; MIC 2 ug/mL): 1
number of clinical isolates that showed the respective MIC value ([1]; MIC 8 ug/mL): 1
number of clinical isolates that showed the respective MIC value ([1]; MIC >16 ug/mL): 35
number of clinical isolates that showed the respective MIC value ([2]; MIC 2 ug/mL): 1
number of clinical isolates that showed the respective MIC value ([2]; MIC >16 ug/mL): 5
number of clinical isolates that showed the respective MIC value ([3]; MIC 0.125 ug/mL): 1
number of clinical isolates that showed the respective MIC value ([3]; MIC 0.5 ug/mL): 3
number of clinical isolates that showed the respective MIC value ([3]; MIC 1 ug/mL): 2
number of clinical isolates that showed the respective MIC value ([3]; MIC 2 ug/mL): 2
number of clinical isolates that showed the respective MIC value ([3]; MIC 4 ug/mL): 3
number of clinical isolates that showed the respective MIC value ([3]; MIC 8 ug/mL): 2
number of clinical isolates that showed the respective MIC value ([3]; MIC 16 ug/mL): 1
number of clinical isolates that showed the respective MIC value ([3]; MIC >16 ug/mL): 2
antibacterial activity (in words) [4]: significantly improved
MIC90 [5]: 1 µg/mL (≈ 1.25 µM)
MIC90 [6]: 1 µg/mL (≈ 1.25 µM)
MIC90 ([7]; E. coli AG100): 0.125 µg/mL (≈ 0.156 µM)
MIC90 [8]: 0.25 µg/mL (≈ 0.313 µM)
MIC90 [9]: 0.125 µg/mL (≈ 0.156 µM)
MIC90 [10]: 64 µg/mL (≈ 80 µM)
MIC90 [11]: 0.5 µg/mL (≈ 0.625 µM)
MIC90 ([12]; P. aeruginosa 40): 0.5 µg/mL (≈ 0.625 µM)
MIC90 ([13]; P. aeruginosa 37): 1 µg/mL (≈ 1.25 µM)
MIC90 [14]: <0.0625 µg/mL
MIC90 [15]: <0.0625 µg/mL
MIC90 [16]: 4 µg/mL (≈ 5 µM)
MIC90 [17]: >128 µg/mL
MIC90 [18]: >128 µg/mL
MIC90 [19]: 1 µg/mL (≈ 1.25 µM)
MIC90 [20]: 8 µg/mL (≈ 10 µM)
MIC90 [21]: <0.0625 µg/mL
MIC90 [22]: 4 µg/mL (≈ 5 µM)
MIC90 [23]: >128 µg/mL

CC(C)(O/N=C(\C(=O)N[C@@H]1C(=O)N2C(C(=O)[O-])=C(/C=C/C[n+]3cnc(N)c(NCCNC(=O)c4cc(=O)c(O)cn4O)c3)CSC12)c1nc(N)sc1Cl)C(=O)O (stereo partly shown) [Compound 26]
number of clinical isolates that showed the respective MIC value ([1]; MIC 0.25 ug/mL): 1
number of clinical isolates that showed the respective MIC value ([1]; MIC 0.5 ug/mL): 2
number of clinical isolates that showed the respective MIC value ([1]; MIC 1 ug/mL): 3
number of clinical isolates that showed the respective MIC value ([1]; MIC 2 ug/mL): 1
number of clinical isolates that showed the respective MIC value ([1]; MIC 8 ug/mL): 4
number of clinical isolates that showed the respective MIC value ([1]; MIC 16 ug/mL): 4
number of clinical isolates that showed the respective MIC value ([1]; MIC <0.0625 ug/mL): 1
number of clinical isolates that showed the respective MIC value ([1]; MIC >16 ug/mL): 22
number of clinical isolates that showed the respective MIC value ([2]; MIC 0.5 ug/mL): 1
number of clinical isolates that showed the respective MIC value ([2]; MIC 8 ug/mL): 2
number of clinical isolates that showed the respective MIC value ([2]; MIC >16 ug/mL): 3
number of clinical isolates that showed the respective MIC value ([3]; MIC 0.0625 ug/mL): 1
number of clinical isolates that showed the respective MIC value ([3]; MIC 0.25 ug/mL): 2
number of clinical isolates that showed the respective MIC value ([3]; MIC 0.5 ug/mL): 3
number of clinical isolates that showed the respective MIC value ([3]; MIC 1 ug/mL): 1
number of clinical isolates that showed the respective MIC value ([3]; MIC 2 ug/mL): 2
number of clinical isolates that showed the respective MIC value ([3]; MIC 4 ug/mL): 3
number of clinical isolates that showed the respective MIC value ([3]; MIC 8 ug/mL): 1
number of clinical isolates that showed the respective MIC value ([3]; MIC >16 ug/mL): 3
antibacterial activity (in words) [4]: significantly improved
MIC90 ([5]; Pseudomonas aeruginosa, 1912E, read-out: MIC90): 0.25 µg/mL (≈ 0.3 µM)
MIC90 [6, 24]: 0.25 µg/mL (≈ 0.3 µM)
MIC90 ([7]; Escherichia coli, AG100, E. coli AG100, read-out: MIC90): < 0.0625 µg/mL
MIC90 ([8]; Moraxella catarrhalis, read-out: MIC90): < 0.0625 µg/mL
MIC90 ([9]; Escherichia coli, read-out: MIC90): < 0.0625 µg/mL
MIC90 ([10]; Enterobacter cloacae, read-out: MIC90): 0.125 µg/mL (≈ 0.15 µM)
MIC90 ([11]; Klebsiella pneumoniae, 2011E, read-out: MIC90): 0.5 µg/mL (≈ 0.599 µM)
MIC90 ([12]; Pseudomonas aeruginosa, 40, P. aeruginosa 40, read-out: MIC90): < 0.0625 µg/mL
MIC90 ([13]; Pseudomonas aeruginosa, 37, P. aeruginosa 37, read-out: MIC90): < 0.0625 µg/mL
MIC90 [14, 25]: 0.125 µg/mL (≈ 0.15 µM)
MIC90 [15, 25]: < 0.0625 µg/mL
MIC90 [16, 24]: 0.5 µg/mL (≈ 0.599 µM)
MIC90 [17, 25]: 0.5 µg/mL (≈ 0.599 µM)
MIC90 [18, 26]: 2 µg/mL (≈ 2.4 µM)
MIC90 ([19]; Acinetobacter calcoaceticus, read-out: MIC90): 0.5 µg/mL (≈ 0.599 µM)
MIC90 [20, 25]: 4 µg/mL (≈ 4.79 µM)
MIC90 [21, 25]: < 0.0625 µg/mL
MIC90 [22, 26]: 2 µg/mL (≈ 2.4 µM)
MIC90 [23, 26]: 16 µg/mL (≈ 19.2 µM)
